According to patent US20060069132A1, “Azolecarboxamide herbicides” (priority 2004, published 2006):
Like-named read-outs stand apart in the source and are kept apart here.

Legend:
[1] = tested on: common (oilseed) sunflower; assay: Test C pre-/postemergence herbicide test; assay type: in vivo, Helianthus annuus
Method in brief: (§1)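 Seeds were planted and sprayed preemergence with test chemicals in a non-phytotoxic solvent mixture containing surfactant; postemergence treatments went onto plants 2 to 18 cm tall (1- to 4-leaf stage). After 12 to 14 days in a greenhouse, injury was rated visually against untreated controls on a 0–100 scale.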

lambsquarters = assay: Test C pre-/postemergence herbicide test; assay type: in vivo, Chenopodium album
Method in brief: as §1

ducksalad = assay: Test C flooded paddy test; assay type: in vivo, Heteranthera limosa; settings: Heteranthera limosa
Surinam grass = assay: Test C pre-/postemergence herbicide test; assay type: in vivo, Urochloa decumbens
Method in brief: as §1

woolly cupgrass = assay: Test C pre-/postemergence herbicide test; assay type: in vivo, Eriochloa villosa
Method in brief: as §1

[2] = tested on: smallflower umbrella sedge; assay: Test C flooded paddy test; assay type: in vivo, Cyperus difformis; settings: Cyperus difformis
morningglory [3] = assay: Test C pre-/postemergence herbicide test; assay type: in vivo, Ipomoea coccinea
Method in brief: as §1

velvetleaf = assay: Test A pre-/postemergence herbicide test; assay type: in vivo, Abutilon theophrasti; settings: Abutilon theophrasti, 240 h; for pest or weed control at 2000 g/ha: 2000 g ai/ha, 0 to 100 scale, 0 no effect, 100 complete control
Method in brief: (§2)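 Seeds sown in sandy loam received a preemergence directed soil spray of compound in non-phytotoxic solvent with surfactant; postemergence plants (2–10 cm, one- to two-leaf stage) were sprayed to runoff at the same time. After ~10 days in greenhouse, injury was rated visually versus untreated controls (0 = no effect, 100 = complete control).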

yellow nutsedge = assay: Test C pre-/postemergence herbicide test; assay type: in vivo, Cyperus esculentus
Method in brief: as §1

corn = assay: Test C pre-/postemergence herbicide test; assay type: in vivo, Zea mays
Method in brief: as §1

rice = assay: Test C flooded paddy test; assay type: in vivo, Oryza sativa; settings: Oryza sativa
Method in brief: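 Postemergence sprays applied to plants 2 to 18 cm tall (1- to 4-leaf stage); paddy species grown to 2-leaf stage under flooding. After 12 to 14 days in greenhouse, visual rating versus untreated controls on 0–100 scale (0 no effect, 100 complete control).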

giant foxtail = assay: Test C pre-/postemergence herbicide test; assay type: in vivo, Setaria faberi
Method in brief: as §1

morningglory [4] = assay: Test A pre-/postemergence herbicide test; assay type: in vivo, Ipomoea spp.; settings: Ipomoea, 240 h; for pest or weed control at 500 g/ha: 500 g ai/ha; for pest or weed control at 2000 g/ha: 2000 g ai/ha
Method in brief: as §2

[5] = Preemergence, 500 g ai/ha, scale 0 to 100, 0 no effect, 100 complete control
[6] = post-emergence, Postemergence, 0 to 100 scale, 0 no effect, 100 complete control, read-out: Plant response rating, Morningglory

SMILES: CCn1nc(C(C)(C)C)cc1C(=O)Nc1cccc2c1CN(C)C2=O [Compound 55, N-(2,3-dihydro-2-methyl-1-oxo-1H-isoindol-4-yl)-3-(1,1-dimethylethyl)-1-ethyl-1H-pyrazole-5-carboxamide]
- Plant response rating (0 = no effect, 100 = complete control), Sunflower ([1]; 62 g ai/ha, preemergence): 0
- pest or weed control at 125 g/ha ([1]; Helianthus annuus, pre-emergence, 125 g ai/ha, scale 0 (no effect) to 100 (complete control), visual, 12 to 14 days, read-out: Plant response rating, Sunflower): 0%
- pest or weed control at 250 g/ha ([1]; Helianthus annuus, pre-emergence, 250 g ai/ha, scale 0 to 100 (0 no effect, 100 complete control), visual, 12 to 14 days, read-out: Plant response rating, Sunflower): 0%
- Sunflower plant response rating [1, 5]: 0
- Plant response rating (0 = no effect, 100 = complete control), Lambsquarters (lambsquarters; 62 g ai/ha, preemergence): 80
- pest or weed control at 125 g/ha (lambsquarters; Chenopodium album, pre-emergence, 125 g ai/ha, scale 0 (no effect) to 100 (complete control), visual, 12 to 14 days, read-out: Plant response rating, Lambsquarters): 95%
- pest or weed control at 250 g/ha (lambsquarters; Chenopodium album, pre-emergence, 250 g ai/ha, scale 0 to 100 (0 no effect, 100 complete control), visual, 12 to 14 days, read-out: Plant response rating, Lambsquarters): 100%
- Lambsquarters plant response rating (lambsquarters; [5]): 100
- pest or weed control at 62 g/ha (ducksalad; 62 g ai/ha, scale 0 to 100 (0 no effect, 100 complete control), read-out: Ducksalad plant response rating): 0%
- pest or weed control at 125 g/ha (ducksalad; 125 g ai/ha, scale of 0 to 100, 0 is no effect, 100 is complete control, read-out: Ducksalad plant response rating): 0%
- pest or weed control at 250 g/ha (ducksalad; 250 g ai/ha, scale of 0 to 100, 0 is no effect, 100 is complete control, read-out: Ducksalad plant response rating): 55%
- pest or weed control at 500 g/ha (ducksalad; 500 g ai/ha, visual rating after 12 to 14 days, scale 0 to 100 (0 no effect, 100 complete control), read-out: Plant response rating, Ducksalad): 80%
- Plant response rating (0 = no effect, 100 = complete control), Surinam Grass (Surinam grass; 62 g ai/ha, preemergence): 0
- Surinam Grass plant response rating (Surinam grass; [5]): 100
- pest or weed control at 125 g/ha (Surinam grass; Urochloa decumbens, pre-emergence, 312 h, 125 g ai/ha, scale 0 (no effect) to 100 (complete control), visual, 12 to 14 days, read-out: Plant response rating, Surinam Grass): 25%
- pest or weed control at 250 g/ha (Surinam grass; Urochloa decumbens, pre-emergence, 312 h, 250 g ai/ha, scale 0 to 100 (0 no effect, 100 complete control), visual, 12 to 14 days, read-out: Plant response rating, Surinam Grass): 65%
- Plant response rating (0 = no effect, 100 = complete control), Cupgrass, Woolly (woolly cupgrass; 62 g ai/ha, preemergence): 0
- pest or weed control at 125 g/ha (woolly cupgrass; Eriochloa villosa, pre-emergence, 312 h, 125 g ai/ha, scale 0 (no effect) to 100 (complete control), visual, 12 to 14 days, read-out: Plant response rating, Cupgrass, Woolly): 25%
- pest or weed control at 250 g/ha (woolly cupgrass; Eriochloa villosa, pre-emergence, 312 h, 250 g ai/ha, scale 0 to 100 (0 no effect, 100 complete control), visual, 12 to 14 days, read-out: Plant response rating, Cupgrass, Woolly): 55%
- Cupgrass, Woolly plant response rating (woolly cupgrass; [5]): 65
- pest or weed control at 62 g/ha ([2]; 62 g ai/ha, scale 0 to 100 (0 no effect, 100 complete control), read-out: Sedge, Umbrella plant response rating): 0%
- pest or weed control at 125 g/ha ([2]; 125 g ai/ha, scale of 0 to 100, 0 is no effect, 100 is complete control, read-out: Sedge, Umbrella plant response rating): 20%
- pest or weed control at 250 g/ha ([2]; 250 g ai/ha, scale of 0 to 100, 0 is no effect, 100 is complete control, read-out: Sedge, Umbrella plant response rating): 75%
- pest or weed control at 500 g/ha ([2]; 500 g ai/ha, visual rating after 12 to 14 days, scale 0 to 100 (0 no effect, 100 complete control), read-out: Plant response rating, Sedge, Umbrella): 80%
- Plant response rating (0 = no effect, 100 = complete control), Morningglory (morningglory [3]; 62 g ai/ha, preemergence): 0
- pest or weed control at 125 g/ha (morningglory [3]; Ipomoea, pre-emergence, 125 g ai/ha, scale 0 (no effect) to 100 (complete control), visual, 12 to 14 days, read-out: Plant response rating, Morningglory): 0%
- pest or weed control at 250 g/ha (morningglory [3]; Ipomoea, pre-emergence, 250 g ai/ha, scale 0 to 100 (0 no effect, 100 complete control), visual, 12 to 14 days, read-out: Plant response rating, Morningglory): 20%
- Morningglory plant response rating (morningglory [3]; [5]): 75
- pest or weed control at 2000 g/ha (velvetleaf; post-emergence, Postemergence, read-out: Plant response rating, Velvetleaf): 40%
- pest or weed control at 500 g/ha (velvetleaf; pre-emergence, Preemergence, 500 g ai/ha, visual rating, 0 to 100 scale (0 no effect, 100 complete control), read-out: Velvetleaf plant response rating): 20%
- pest or weed control at 2000 g/ha (velvetleaf; pre-emergence, Preemergence, read-out: Velvetleaf plant response rating): 70%
- Plant response rating (0 = no effect, 100 = complete control), Nutsedge, Yellow (yellow nutsedge; 62 g ai/ha, preemergence): 0
- pest or weed control at 125 g/ha (yellow nutsedge; Cyperus, pre-emergence, 125 g ai/ha, scale 0 (no effect) to 100 (complete control), visual, 12 to 14 days, read-out: Plant response rating, Nutsedge, Yellow): 0%
- pest or weed control at 250 g/ha (yellow nutsedge; Cyperus, pre-emergence, 250 g ai/ha, scale 0 to 100 (0 no effect, 100 complete control), visual, 12 to 14 days, read-out: Plant response rating, Nutsedge, Yellow): 0%
- Nutsedge, Yellow plant response rating (yellow nutsedge; [5]): 10
- Plant response rating (0 = no effect, 100 = complete control), Corn (corn; 62 g ai/ha, preemergence): 0
- Corn plant response rating (corn; [5]): 0
- Corn plant response rating (crop injury, 0 = no effect, 100 = complete kill) at 125 g/ha (corn; Zea mays, pre-emergence, 312 h, 125 g ai/ha, scale 0 (no effect) to 100 (complete control), visual, 12 to 14 days): 0%
- Corn plant response rating (crop injury, 0 = no effect, 100 = complete kill) at 250 g/ha (corn; Zea mays, pre-emergence, 312 h, 250 g ai/ha, scale 0 to 100 (0 no effect, 100 complete control), visual, 12 to 14 days): 0%
- plant injury at 62 g/ha (rice; 62 g ai/ha, scale 0 to 100 (0 no effect, 100 complete control), read-out: Rice plant response rating): 0%
- plant injury at 125 g/ha (rice; 125 g ai/ha, scale of 0 to 100, 0 is no effect, 100 is complete control, read-out: Rice plant response rating): 0%
- plant injury at 250 g/ha (rice; 250 g ai/ha, scale of 0 to 100, 0 is no effect, 100 is complete control, read-out: Rice plant response rating): 15%
- plant injury at 500 g/ha (rice; 500 g ai/ha, visual rating after 12 to 14 days, scale 0 to 100 (0 no effect, 100 complete control), read-out: Plant response rating, Rice): 60%
- Plant response rating (0 = no effect, 100 = complete control), Foxtail, Giant (giant foxtail; 62 g ai/ha, preemergence): 0
- Foxtail, Giant plant response rating (giant foxtail; [5]): 100
- pest or weed control at 125 g/ha (giant foxtail; Setaria faberi, pre-emergence, 312 h, 125 g ai/ha, scale 0 (no effect) to 100 (complete control), visual, 12 to 14 days, read-out: Plant response rating, Foxtail, Giant): 50%
- pest or weed control at 250 g/ha (giant foxtail; Setaria faberi, pre-emergence, 312 h, 250 g ai/ha, scale 0 to 100 (0 no effect, 100 complete control), visual, 12 to 14 days, read-out: Plant response rating, Foxtail, Giant): 75%
- pest or weed control at 500 g/ha (morningglory [4]; [6]): 20%
- pest or weed control at 2000 g/ha (morningglory [4]; [6]): 25%
- pest or weed control at 500 g/ha (morningglory [4]; pre-emergence, Preemergence, visual rating, 0 to 100 scale (0 no effect, 100 complete control), read-out: Morningglory plant response rating): 5%
- pest or weed control at 2000 g/ha (morningglory [4]; pre-emergence, Preemergence, 0 to 100 scale, 0 no effect, 100 complete control, read-out: Morningglory plant response rating): 20%
